Source: patent US8129530B2, “Catecholamine derivatives and prodrugs thereof” (H. Lundbeck A/S, priority 2007, dated 2012)

How the values were obtained:
[1] = test system: mouse model of severe dopamine depletion; assay: Superiority model; format: in vivo; conditions: mice
Description: Both Apomorphine and L-DOPA stimulate D1 and D2-like dopamine receptors.

PD patients = conditions: intravenous (IV); cited from earlier work

In the case of N[C@@H](Cc1ccc(O)c(O)c1)C(=O)O [L-DOPA, (levo)-3,4-dihydroxy phenylalanine], the “reversal of motility deficits / restoration of locomotion” value [1] is reported as “able to reverse motility deficits”.

In the case of CCCc1cc2c(s1)CN[C@@H]1CCc3cc(OC(C)=O)c(OC(C)=O)cc3[C@@H]21 [Adrogolide], the antiparkinson efficacy (PD patients) is given as “comparable to that of L-DOPA”.

With CN1CCc2cccc3c2[C@H]1Cc1ccc(O)c(O)c1-3 [Apomorphine] the “reversal of motility deficits / restoration of locomotion” value [1] was “able to reverse motility deficits”.
